# Results reported in patent US20060182805A1, “Dosage form and method for sustained release of substituted pyrazine compound” (Jazz Pharmaceuticals, priority 2005, published 2006).
# Read-outs that look alike come from different tables or passages of the source.
# Columns and labels:
# [1] = Pharmacokinetics of the drug after single oral dose (volume of distribution, half lives); assay type: in vivo; settings: for half-life: human, plasma, oral
# Description: In this case, the drug is eliminated rapidly from the plasma via distribution into other tissues as well as through metabolism and excretion into the urine. The rapid elimination makes it necessary to deliver the drug into the GI tract for extended periods of time, up to about 24 hours. It may also require that the drug be delivered in an ascending profile such as that shown in this FIG. 5. Such ascending profile may be accomplished by increasing the dose from an initial dose in two to five increments to achieve a desired maximum dose or by delivering a dosage form with an ascending profile for the initial two to five doses. Such doses may be delivered every 24 hours or every 12 hours.
# A steady state plasma profile occurs after the administration of two to three doses. The achievement of steady state with the desirable Cmax/Cmin ratio after the administration of very few doses is advantageous in that therapeutic levels are achieved in a short time and maintained thereafter. Rapid attainment of steady state allows for faster increases or decreases in dose without unwanted side effects and the resultant titration to a therapeutically effective dose and, if necessary, withdrawal of therapy. The Cmax/Cmin ratio at steady state is less than 3, often less than 2, often less than 1.5 and between 1.0 and 2.
# [2] = In vitro release rate (dissolution) from dosage forms, FIG. 3-5; assay type: physicochemical
# Description: By “dissolution rate” or “release rate” is intended the amount of active agent released in vitro from a dosage form per unit time into a release medium, usually in units of milligrams per hour (mg/hr). In vitro release rates are performed on dosage forms placed in metal coil sample holders attached to a USP Type VII bath indexer in a constant temperature water bath at 37° C. In addition, other appropriate dissolution test apparatuses may be suitable, such as, USP apparatus I or II. Aliquots of the release rate solutions are injected into a chromatographic system to quantify the amounts of drug released during each testing interval. According to the invention, between 2 and 50% of the dose is released following two hours after exposure of the dosage form to the environment of use. These dissolution rates may be between 2 and 60% or 10 and 50% within the first 4 hours, between about 20 and 80% or 35 and 70% from 4 hours to about 8 hours following exposure to the environment of use between about 35 and 95% or 45 and 85% from 8 hours to about 12 hours following exposure to the environment of use and greater than 50 to 80% or greater than 90% following 12 hours after exposure to the environment of use and greater than 90% following 22 hours after exposure to the environment of use.
compound,measurement,setting,value
"Nc1cnc(-c2cc(Cl)cc(Cl)c2Cl)c(N)n1 [3-(2,3,5-trichloro-phenyl)-pyrazine-2,6-diamine]",half-life,[1]; read-out: final half life of the drug,10 to 13 h
same,half-life,[1]; read-out: initial half life of the drug,< 5 h
same,volume of distribution (Vd),[1]; single oral dose,about 640 liters
same,"period of release, controlled and increasing dose","[2]; ascending release profile, FIG. 5",24 h
same,period of release of active agent,"[2]; first-order release profile, FIG. 4",about 20 hours
same,amount released,"[2]; first-order release profile, after 11 hours, FIG. 4",90%
same,period of release of active agent,"[2]; zero-order release profile, FIG. 3",about 20 hours
same,amount released,"[2]; zero-order release profile, after 16 hours, FIG. 3",90%
